# How the values were obtained:
# [1] = biological target: T1, Serine/threonine-protein kinase Chk1 (Homo sapiens) (UniProt O14757); assay: Inhibition of His-tagged human CHK1 expressed in Escherichia coli at 50 uM; values are per cent of control
# T1 sequence (whole entry): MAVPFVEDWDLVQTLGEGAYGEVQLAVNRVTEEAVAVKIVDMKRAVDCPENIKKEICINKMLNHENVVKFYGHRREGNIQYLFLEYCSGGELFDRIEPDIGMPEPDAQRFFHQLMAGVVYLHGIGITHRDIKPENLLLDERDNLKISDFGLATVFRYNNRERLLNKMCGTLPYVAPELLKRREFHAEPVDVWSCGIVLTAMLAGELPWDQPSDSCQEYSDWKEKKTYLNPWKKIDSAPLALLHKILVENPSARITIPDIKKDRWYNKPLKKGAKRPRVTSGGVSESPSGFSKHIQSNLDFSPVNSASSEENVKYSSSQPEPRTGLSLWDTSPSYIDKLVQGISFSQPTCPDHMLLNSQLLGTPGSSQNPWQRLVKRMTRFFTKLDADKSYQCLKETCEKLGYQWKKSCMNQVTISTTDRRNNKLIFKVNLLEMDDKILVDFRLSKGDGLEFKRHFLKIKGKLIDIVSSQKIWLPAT
# [2] = biological target: T2, Casein kinase II (Homo sapiens) (UniProt P67870+P68400+P19784); assay: Inhibition of His-tagged human CK2 expressed in Sf9 cells at 50 uM; values are per cent of control
# [3] = biological target: T3, Ribosomal protein S6 kinase beta-1 (Homo sapiens, UniProt P23443); assay: Inhibition of His-tagged human S6K1 expressed in Escherichia coli at 50 uM; values are per cent of control
# T3 sequence (P23443 whole entry, looked up): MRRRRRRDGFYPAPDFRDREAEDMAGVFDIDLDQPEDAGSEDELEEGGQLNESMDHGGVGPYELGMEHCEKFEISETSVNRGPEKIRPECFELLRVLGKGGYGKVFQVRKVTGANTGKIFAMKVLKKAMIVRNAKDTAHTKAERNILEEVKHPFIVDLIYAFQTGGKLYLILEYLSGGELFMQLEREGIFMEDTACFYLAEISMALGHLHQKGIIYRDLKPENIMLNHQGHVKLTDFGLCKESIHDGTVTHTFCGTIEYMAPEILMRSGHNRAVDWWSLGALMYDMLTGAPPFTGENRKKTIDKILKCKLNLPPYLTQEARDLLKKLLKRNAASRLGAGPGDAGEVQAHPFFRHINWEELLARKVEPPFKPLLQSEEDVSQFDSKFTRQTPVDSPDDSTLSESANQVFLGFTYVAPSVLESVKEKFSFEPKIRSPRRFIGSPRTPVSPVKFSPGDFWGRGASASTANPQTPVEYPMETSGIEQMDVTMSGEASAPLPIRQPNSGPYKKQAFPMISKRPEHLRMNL
# [4] = species on record: Rattus norvegicus; assay: Inhibition of rat liver AMPK at 50 uM; values are per cent of control
# [5] = biological target: RAC-alpha serine/threonine-protein kinase (Homo sapiens) (UniProt P31749); assay: Inhibition of human PKBalpha expressed in SF9 cells at 50 uM; values are per cent of control
# [6] = biological target: Mitogen-activated protein kinase 14 (Homo sapiens) (UniProt Q16539); assay: Inhibition of His-tagged human SAPK2a/p38 expressed in Escherichia coli at 50 uM; values are per cent of control
# Sequence of Mitogen-activated protein kinase 14 (Homo sapiens) (Q16539 whole entry): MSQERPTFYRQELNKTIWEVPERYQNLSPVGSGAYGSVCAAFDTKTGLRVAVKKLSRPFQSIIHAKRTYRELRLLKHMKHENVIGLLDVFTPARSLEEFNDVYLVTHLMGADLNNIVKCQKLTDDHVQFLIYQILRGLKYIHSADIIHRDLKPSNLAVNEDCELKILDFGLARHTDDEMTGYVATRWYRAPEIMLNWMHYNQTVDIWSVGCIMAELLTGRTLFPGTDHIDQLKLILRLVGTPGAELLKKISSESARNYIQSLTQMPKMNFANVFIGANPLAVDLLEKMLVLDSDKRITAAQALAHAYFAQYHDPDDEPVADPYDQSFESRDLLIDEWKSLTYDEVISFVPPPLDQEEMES
# [7] = species on record: Oryctolagus cuniculus; assay: Inhibition of PHK from rabbit skeletal muscle at 50 uM; values are per cent of control; conditions: Muscle tissue
# [8] = species on record: Oryctolagus cuniculus; assay: Inhibition of MAPKAPK1b from rabbit skeletal muscle at 50 uM; values are per cent of control; conditions: Muscle tissue
# [9] = biological target: Mitogen-activated protein kinase 1 (Homo sapiens) (UniProt P28482); assay: Inhibition of His-tagged human MAPK2/ERK2 expressed in Escherichia coli at 50 uM; values are per cent of control
# [10] = biological target: Glycogen synthase kinase-3 beta (Homo sapiens, UniProt P49841); assay: Inhibition of His-tagged human GSK3b expressed in Sf21 cells at 50 uM; values are per cent of control
# Sequence of Glycogen synthase kinase-3 beta (P49841 whole entry, looked up): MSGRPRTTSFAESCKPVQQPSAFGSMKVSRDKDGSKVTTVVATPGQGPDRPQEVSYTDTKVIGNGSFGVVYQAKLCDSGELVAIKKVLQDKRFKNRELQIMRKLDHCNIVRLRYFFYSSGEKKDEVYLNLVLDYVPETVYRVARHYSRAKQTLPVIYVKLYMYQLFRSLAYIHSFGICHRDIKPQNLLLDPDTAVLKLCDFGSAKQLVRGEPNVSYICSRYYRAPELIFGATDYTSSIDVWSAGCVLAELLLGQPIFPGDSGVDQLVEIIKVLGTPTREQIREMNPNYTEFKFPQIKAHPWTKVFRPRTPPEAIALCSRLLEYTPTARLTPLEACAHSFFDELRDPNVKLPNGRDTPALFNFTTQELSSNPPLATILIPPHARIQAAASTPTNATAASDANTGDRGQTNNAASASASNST
# [11] = biological target: Rho-associated protein kinase 2 (Rattus norvegicus) (UniProt Q62868); assay: Inhibition of rat ROCK2 expressed in Sf9 cells at 50 uM; conditions: values are per cent of control
# Sequence of Rho-associated protein kinase 2 (Rattus norvegicus) (Q62868 whole entry, looked up): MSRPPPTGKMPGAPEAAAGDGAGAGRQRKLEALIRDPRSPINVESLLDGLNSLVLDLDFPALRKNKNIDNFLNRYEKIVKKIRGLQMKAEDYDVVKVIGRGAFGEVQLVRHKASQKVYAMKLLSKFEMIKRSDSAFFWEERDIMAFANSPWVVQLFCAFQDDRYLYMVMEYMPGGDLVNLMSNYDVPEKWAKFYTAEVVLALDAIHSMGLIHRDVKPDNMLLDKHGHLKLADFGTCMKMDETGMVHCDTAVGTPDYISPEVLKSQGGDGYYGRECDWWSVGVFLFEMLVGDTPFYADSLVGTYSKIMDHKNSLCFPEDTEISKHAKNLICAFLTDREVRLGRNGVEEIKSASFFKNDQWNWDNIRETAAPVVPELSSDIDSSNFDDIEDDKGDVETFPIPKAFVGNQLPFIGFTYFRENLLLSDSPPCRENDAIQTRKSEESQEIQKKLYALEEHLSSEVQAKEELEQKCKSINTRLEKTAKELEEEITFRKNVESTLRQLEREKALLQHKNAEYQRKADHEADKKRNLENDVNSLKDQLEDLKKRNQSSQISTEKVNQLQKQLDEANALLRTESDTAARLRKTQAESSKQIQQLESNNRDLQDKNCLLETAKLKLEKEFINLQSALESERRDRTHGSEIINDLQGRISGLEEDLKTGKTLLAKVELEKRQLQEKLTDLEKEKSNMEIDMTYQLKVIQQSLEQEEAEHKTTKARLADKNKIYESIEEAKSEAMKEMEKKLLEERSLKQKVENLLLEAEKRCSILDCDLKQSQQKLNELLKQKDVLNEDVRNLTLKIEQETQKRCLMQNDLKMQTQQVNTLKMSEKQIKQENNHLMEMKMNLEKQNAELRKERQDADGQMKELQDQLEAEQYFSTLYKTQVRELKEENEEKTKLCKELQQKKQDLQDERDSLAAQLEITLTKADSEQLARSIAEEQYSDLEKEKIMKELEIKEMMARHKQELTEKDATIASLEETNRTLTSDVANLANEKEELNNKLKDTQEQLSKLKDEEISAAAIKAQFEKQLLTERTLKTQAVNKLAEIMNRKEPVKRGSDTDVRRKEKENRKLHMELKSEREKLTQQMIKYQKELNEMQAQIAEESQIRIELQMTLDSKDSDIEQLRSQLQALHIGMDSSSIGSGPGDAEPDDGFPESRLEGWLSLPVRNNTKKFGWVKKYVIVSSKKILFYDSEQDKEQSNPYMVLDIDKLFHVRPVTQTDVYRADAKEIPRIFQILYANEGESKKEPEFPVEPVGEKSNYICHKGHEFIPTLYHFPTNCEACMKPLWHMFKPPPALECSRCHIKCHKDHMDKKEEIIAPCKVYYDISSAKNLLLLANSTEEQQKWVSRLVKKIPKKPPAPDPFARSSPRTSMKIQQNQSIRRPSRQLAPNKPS
# [12] = biological target: T4, Mitogen-activated protein kinase 12 (Homo sapiens) (UniProt P53778); assay: Inhibition of His-tagged human SAPK3/p38gamma expressed in Escherichia coli at 50 uM; values are per cent of control
# T4 sequence (whole entry): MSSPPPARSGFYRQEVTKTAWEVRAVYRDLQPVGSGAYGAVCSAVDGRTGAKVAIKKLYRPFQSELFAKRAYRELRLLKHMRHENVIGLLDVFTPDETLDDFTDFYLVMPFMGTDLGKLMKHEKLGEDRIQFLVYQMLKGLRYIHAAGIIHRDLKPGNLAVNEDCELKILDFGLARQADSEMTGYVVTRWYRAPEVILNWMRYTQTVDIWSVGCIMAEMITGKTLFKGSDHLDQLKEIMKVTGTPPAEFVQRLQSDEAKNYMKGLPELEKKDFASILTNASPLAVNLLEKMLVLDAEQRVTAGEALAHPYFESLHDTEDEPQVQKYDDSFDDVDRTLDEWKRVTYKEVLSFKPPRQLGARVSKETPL
# [13] = biological target: T5, Serine/threonine-protein kinase Sgk1 (Homo sapiens) (UniProt O00141); assay: Inhibition of His-tagged human SGK expressed in Sf9 cells at 50 uM; values are per cent of control
# T5 sequence (whole entry): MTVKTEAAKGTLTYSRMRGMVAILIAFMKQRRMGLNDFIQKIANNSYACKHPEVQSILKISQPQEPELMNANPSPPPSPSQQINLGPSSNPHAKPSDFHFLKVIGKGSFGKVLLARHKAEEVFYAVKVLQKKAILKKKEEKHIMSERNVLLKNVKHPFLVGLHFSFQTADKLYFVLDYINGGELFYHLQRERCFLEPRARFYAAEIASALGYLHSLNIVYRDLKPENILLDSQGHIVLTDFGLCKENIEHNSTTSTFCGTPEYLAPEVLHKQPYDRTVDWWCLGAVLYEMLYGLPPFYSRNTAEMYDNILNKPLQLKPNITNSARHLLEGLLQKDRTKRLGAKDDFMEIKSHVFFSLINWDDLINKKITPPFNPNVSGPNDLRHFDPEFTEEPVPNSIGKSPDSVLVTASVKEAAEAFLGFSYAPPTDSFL
# [14] = biological target: T6, Ribosomal protein S6 kinase alpha-5 (Homo sapiens, UniProt O75582); assay: Inhibition of His-tagged human MSK1 expressed in Sf9 cells at 50 uM; values are per cent of control
# T6 sequence (O75582 whole entry, looked up): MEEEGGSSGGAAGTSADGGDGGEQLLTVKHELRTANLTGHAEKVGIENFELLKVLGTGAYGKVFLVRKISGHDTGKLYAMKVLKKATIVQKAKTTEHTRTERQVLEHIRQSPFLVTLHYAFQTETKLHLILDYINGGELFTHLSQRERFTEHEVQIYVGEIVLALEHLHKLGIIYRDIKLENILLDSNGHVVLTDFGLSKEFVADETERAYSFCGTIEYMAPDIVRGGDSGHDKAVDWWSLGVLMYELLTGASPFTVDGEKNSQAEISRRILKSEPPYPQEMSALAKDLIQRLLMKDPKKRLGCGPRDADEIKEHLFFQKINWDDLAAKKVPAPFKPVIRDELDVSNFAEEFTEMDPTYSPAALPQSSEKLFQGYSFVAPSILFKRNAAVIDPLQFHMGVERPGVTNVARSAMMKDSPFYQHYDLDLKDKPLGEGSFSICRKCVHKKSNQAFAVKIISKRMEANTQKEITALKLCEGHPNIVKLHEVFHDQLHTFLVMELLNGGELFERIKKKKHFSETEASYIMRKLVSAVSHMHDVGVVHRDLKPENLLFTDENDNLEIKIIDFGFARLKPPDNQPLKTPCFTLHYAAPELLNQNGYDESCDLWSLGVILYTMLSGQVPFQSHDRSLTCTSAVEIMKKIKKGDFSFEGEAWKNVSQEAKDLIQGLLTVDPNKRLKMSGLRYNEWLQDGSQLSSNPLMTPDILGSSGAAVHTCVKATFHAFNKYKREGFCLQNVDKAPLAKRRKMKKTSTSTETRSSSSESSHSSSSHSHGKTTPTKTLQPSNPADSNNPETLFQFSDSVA
# [15] = species on record: Oryctolagus cuniculus; assay: Inhibition of rabbit MKK1 expressed in Escherichia coli at 50 uM; values are per cent of control
# [16] = biological target: Mitogen-activated protein kinase 11 (Homo sapiens) (UniProt Q15759); assay: Inhibition of His-tagged human SAPK2b/p38b2 expressed in Escherichia coli at 50 uM; values are per cent of control
# Sequence of Mitogen-activated protein kinase 11 (Homo sapiens) (Q15759 whole entry): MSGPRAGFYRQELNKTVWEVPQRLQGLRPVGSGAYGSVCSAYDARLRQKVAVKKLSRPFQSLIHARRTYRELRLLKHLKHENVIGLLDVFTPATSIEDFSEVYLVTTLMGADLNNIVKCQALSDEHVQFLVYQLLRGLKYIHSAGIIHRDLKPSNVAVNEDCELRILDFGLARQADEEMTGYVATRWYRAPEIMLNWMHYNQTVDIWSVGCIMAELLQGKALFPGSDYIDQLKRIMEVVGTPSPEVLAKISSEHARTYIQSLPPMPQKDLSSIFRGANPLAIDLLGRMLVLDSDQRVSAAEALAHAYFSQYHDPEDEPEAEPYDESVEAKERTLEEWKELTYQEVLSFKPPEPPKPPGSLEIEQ
# [17] = biological target: Protein kinase C alpha type (Homo sapiens, UniProt P17252); assay: Inhibition of His-tagged human PKCalpha expressed in Escherichia coli at 50 uM; values are per cent of control
# [18] = biological target: Mitogen-activated protein kinase 8 (Homo sapiens) (UniProt P45983); assay: Inhibition of His-tagged human JNK1a1/SAPK1c expressed in Escherichia coli at 50 uM; values are per cent of control
# Sequence of Mitogen-activated protein kinase 8 (Homo sapiens) (P45983 whole entry): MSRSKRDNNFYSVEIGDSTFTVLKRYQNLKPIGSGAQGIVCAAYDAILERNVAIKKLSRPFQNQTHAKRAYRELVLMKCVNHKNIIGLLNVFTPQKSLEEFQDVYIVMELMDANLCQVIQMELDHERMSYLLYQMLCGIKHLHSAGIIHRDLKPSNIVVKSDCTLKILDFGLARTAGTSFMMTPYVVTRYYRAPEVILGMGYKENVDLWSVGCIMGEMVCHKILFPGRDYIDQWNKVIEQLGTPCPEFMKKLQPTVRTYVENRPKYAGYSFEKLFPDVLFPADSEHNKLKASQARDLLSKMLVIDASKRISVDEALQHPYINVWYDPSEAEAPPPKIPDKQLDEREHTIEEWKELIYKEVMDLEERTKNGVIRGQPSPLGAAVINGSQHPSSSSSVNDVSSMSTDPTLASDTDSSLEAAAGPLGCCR
# [19] = biological target: T7, Mitogen-activated protein kinase 13 (Homo sapiens) (UniProt O15264); assay: Inhibition of His-tagged human SAPK4/p38delta expressed in Escherichia coli at 50 uM; values are per cent of control
# T7 sequence (whole entry): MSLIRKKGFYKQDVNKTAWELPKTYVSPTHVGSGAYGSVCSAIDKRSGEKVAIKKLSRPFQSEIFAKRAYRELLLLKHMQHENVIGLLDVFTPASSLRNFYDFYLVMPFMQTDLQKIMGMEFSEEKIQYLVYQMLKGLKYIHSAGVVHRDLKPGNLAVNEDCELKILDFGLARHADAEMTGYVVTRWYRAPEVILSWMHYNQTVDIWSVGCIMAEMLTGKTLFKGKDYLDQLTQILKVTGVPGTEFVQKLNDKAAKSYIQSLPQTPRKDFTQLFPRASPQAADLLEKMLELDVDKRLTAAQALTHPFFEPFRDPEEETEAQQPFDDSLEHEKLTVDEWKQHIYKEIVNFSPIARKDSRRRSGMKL
# [20] = biological target: [Pyruvate dehydrogenase (acetyl-transferring)] kinase isozyme 1, mitochondrial (Homo sapiens) (UniProt Q15118); assay: Inhibition of His-tagged human PDK1 expressed in Sf21 cells at 50 uM; conditions: values are per cent of control
# [21] = biological target: MAP kinase-activated protein kinase 2 (Homo sapiens, UniProt P49137); assay: Inhibition of His-tagged human MAPKAPK2 expressed in Escherichia coli at 50 uM; values are per cent of control
# Sequence of MAP kinase-activated protein kinase 2 (P49137 whole entry, looked up): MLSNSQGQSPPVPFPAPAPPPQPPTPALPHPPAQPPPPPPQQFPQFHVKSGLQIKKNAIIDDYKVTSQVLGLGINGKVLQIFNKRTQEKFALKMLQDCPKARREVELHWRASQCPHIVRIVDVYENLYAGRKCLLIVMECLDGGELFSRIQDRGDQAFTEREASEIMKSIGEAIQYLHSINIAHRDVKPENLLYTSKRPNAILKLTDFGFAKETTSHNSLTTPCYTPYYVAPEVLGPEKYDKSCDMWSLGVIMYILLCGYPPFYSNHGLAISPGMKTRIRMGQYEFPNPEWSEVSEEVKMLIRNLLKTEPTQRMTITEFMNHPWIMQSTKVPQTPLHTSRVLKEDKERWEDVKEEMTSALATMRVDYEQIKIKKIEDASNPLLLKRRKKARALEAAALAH
# [22] = species on record: Bos taurus; assay: Inhibition of bovine heart PKA at 50 uM; values are per cent of control
# [23] = species on record: Bos taurus; assay: Inhibition of bovine heart PKA at 20 uM; values are per cent of control
# [24] = biological target: T3, Ribosomal protein S6 kinase beta-1; assay: Inhibition of His-tagged human S6K1 expressed in Escherichia coli at 20 uM; values are per cent of control
# [25] = biological target: T7, Mitogen-activated protein kinase 13 (Homo sapiens); assay: Inhibition of His-tagged human SAPK4/p38delta expressed in Escherichia coli at 20 uM; conditions: values are per cent of control
# [26] = biological target: T2, Casein kinase II (Homo sapiens); assay: Inhibition of His-tagged human CK2 expressed in Sf9 cells at 20 uM; conditions: values are per cent of control
# [27] = species on record: Oryctolagus cuniculus; assay: Inhibition of PHK from rabbit skeletal muscle at 20 uM; values are per cent of control; conditions: Muscle tissue
# [28] = biological target: Serine/threonine-protein kinase N2 (Homo sapiens) (UniProt Q16513); conditions: HEK293, 20 uM
# Description: Inhibition of His-tagged human PRK2 expressed in HEK293 cells at 20 uM
# [29] = biological target: T6, Ribosomal protein S6 kinase alpha-5; assay: Inhibition of His-tagged human MSK1 expressed in Sf9 cells at 20 uM; values are per cent of control
# [30] = biological target: T1, Serine/threonine-protein kinase Chk1 (Homo sapiens); assay: Inhibition of His-tagged human CHK1 expressed in Escherichia coli at 20 uM; values are per cent of control
# [31] = biological target: Mitogen-activated protein kinase 8 (Homo sapiens) (UniProt P45983); assay: Inhibition of His-tagged human JNK1a1/SAPK1c expressed in Escherichia coli at 20 uM; values are per cent of control
# [32] = species on record: Rattus norvegicus; assay: Inhibition of rat liver AMPK at 20 uM; values are per cent of control
# [33] = biological target: Mitogen-activated protein kinase 11 (Homo sapiens) (UniProt Q15759); assay: Inhibition of His-tagged human SAPK2b/p38b2 expressed in Escherichia coli at 20 uM; values are per cent of control
structure (smiles),measurement,setting,value
COc1cccc(-c2cc(=O)c3ccccc3o2)c1N,residual activity,[1],99%
same,residual activity,[2],87%
same,residual activity,[3],100%
same,residual activity,[4],97%
same,residual activity,[5],82%
same,residual activity,[6],85%
same,"level, % of control",[7],87%
same,"level, % of control",[8],93%
same,residual activity,[9],85%
same,residual activity,[10],101%
same,residual activity,[11],80%
same,residual activity,[12],96%
same,residual activity,[13],90%
same,residual activity,[14],86%
same,residual activity,[15],89%
same,residual activity,[16],95%
same,residual activity,[17],93%
same,residual activity,[18],111%
same,residual activity,[19],94%
same,residual activity,[20],86%
same,residual activity,[21],95%
same,residual activity,[22],106%
O=S(=O)(c1cccc2cnccc12)N1CCCNCC1,residual activity,[23],35%
same,residual activity,[24],32%
same,residual activity,[25],103%
same,residual activity,[26],102%
same,"level, % of control",[27],58%
same,inhibition,[28],15%
same,residual activity,[29],19%
same,residual activity,[30],82%
same,residual activity,[31],96%
same,residual activity,[32],77%
same,residual activity,[33],97%

# From ChEMBL document CHEMBL1240295, “Specificity and mechanism of action of some commonly used protein kinase inhibitors” (Biochem J, 2000)
